Reference: patent publication US20090023731A1, “SOLUBLE EPOXIDE HYDROLASE INHIBITORS” (Arete Therapeutics, Inc., priority 2007, published 2009)

The compounds below were run on soluble epoxide hydrolase (sEH) (assay: Fluorescent assay for mouse and human soluble epoxide hydrolase (CMNPC substrate)). Conditions: inhibitor conc. 50 nM.
Assay type: biochemical
Experimental: Recombinant mouse sEH (MsEH) and human sEH (HsEH) were produced in a baculovirus expression system as previously reported. […] The expressed proteins were purified from cell lysate by affinity chromatography. […] Protein concentration was quantified using the Pierce BCA assay using bovine serum albumin as the calibrating standard.
The IC50s for each inhibitor were according to the following procedure:
Bis/Tris HCl 25 mM pH 7.0 containing 0.1 mg/mL of BSA (buffer A) CMNPC at 0.25 mM in DMSO.
Mother solution of enzyme in buffer A (Mouse sEH at 6 μg/mL and Human sEH at 5 μg/mL). Inhibitor dissolved in DMSO at the appropriate concentration.
In a black 96 well plate, fill all the wells with 150 μL of buffer A.
Add 2 μL of DMSO in well A2 and A3, and then add 2 μL of inhibitor solution in A1 and A4 through A12.
Add […] of buffer A in row A, then mix several time and transfer […] to row B. Repeat this operation up to row H. The […] removed from row H is discarded.
Add […] of buffer A in column 1 and 2, then add […] of enzyme solution to column 3 to 12.
Incubate the plate for 5 minutes in the plate reader at 30° C.
During incubation prepare the working solution of substrate by mixing 3.68 mL of buffer A (4×0.920 mL) with 266 μL (2×133 μL) of substrate solution).
The velocities are used to analyze and calculate the IC50s.

Compound | % Inh [%]
O=C(Nc1ccc(OC(F)(F)F)cc1)Nc1cccc(OCCCN2CCOCC2)c1 [Compound 28, 1-[3-(3-Morpholin-4-yl-propoxy)-phenyl]-3-(4-trifluoromethoxy-phenyl)-urea] | 90
O=C(Nc1ccc(F)c(OCCCN2CCOCC2)c1)NC12CC3CC(CC(C3)C1)C2 [Compound 53, 1-Adamantan-1-yl-3-[4-fluoro-3-(3-morpholin-4-yl-propoxy)-phenyl]-urea] | 92
O=C(Nc1ccc(OCCCN2CCOCC2)cc1)Nc1ccc(OC(F)(F)F)cc1 [Compound 34, 1-[4-(3-Morpholin-4-yl-propoxy)-phenyl]-3-(4-trifluoromethoxy-phenyl)-urea] | 91
O=C(Nc1cccc(OCCCN2CCOCC2)c1)NC12CC3CC(CC(C3)C1)C2 [Compound 47, 1-Adamantan-1-yl-3-[3-(3-morpholin-4-yl-propoxy)-phenyl]-urea] | 99
O=C(Nc1ccc(OCCCN2CCOCC2)cc1)Nc1ccc(C(F)(F)F)cc1 [Compound 21, 1-[4-(3-Morpholin-4-yl-propoxy)-phenyl]-3-(4-trifluoromethyl-phenyl)-urea] | 96
O=C(Nc1cccc(OCCCN2CCOCC2)c1)NC1CCCCC1 [Compound 41, 1-Cyclohexyl-3-[3-(3-morpholin-4-yl-propoxy)-phenyl]-urea] | 96
O=C(Nc1cccc(OCCCN2CCOCC2)c1)Nc1cccc(C(F)(F)F)c1 [Compound 10, 1-[3-(3-Morpholin-4-yl-propoxy)-phenyl]-3-(3-trifluoromethyl-phenyl)-urea] | 74
O=C(Nc1cccc(OCCCN2CCOCC2)c1)Nc1ccc(F)c(F)c1 [Compound 4, 1-(3,4-Difluoro-phenyl)-3-[3-(3-morpholin-4-yl-propoxy)-phenyl]-urea] | 75
O=C(CC1CCCCC1)Nc1cccc(OCCCN2CCOCC2)c1 [Compound 51, 2-Cyclohexyl-N-[3-(3-morpholin-4-yl-propoxy)-phenyl]-acetamide] | 61
O=C(NC1CCCC(OCCCN2CCOCC2)C1)NC12CC3CC(CC(C3)C1)C2 (stereo not shown) [Compound 48, 1-Adamantan-1-yl-3-[3-(3-morpholin-4-yl-propoxy)-cyclohexyl]-urea] | 94
O=C(Nc1ccc(OCCCN2CCOCC2)cc1)NC1CCCCC1 [Compound 45, 1-Cyclohexyl-3-[4-(3-morpholin-4-yl-propoxy)-phenyl]-urea] | 79
O=C(CC12CC3CC(CC(C3)C1)C2)Nc1cccc(OCCCN2CCOCC2)c1 [Compound 43, 2-Adamantan-1-yl-N-[3-(3-morpholin-4-yl-propoxy)-phenyl]-acetamide] | 93
O=C(Nc1ccc(OC(F)(F)F)cc1)Nc1ccc(F)c(OCCCN2CCOCC2)c1 [Compound 33, 1-[4-Fluoro-3-(3-morpholin-4-yl-propoxy)-phenyl]-3-(4-trifluoromethoxy-phenyl)-urea] | 83

Same assay, conditions: inhibitor conc. 200 nM

Compound | % Inh [%]
O=C(NCCc1ccc(OCc2ccccc2)cc1)NCCC12CC3CC(CC(C3)C1)C2 [Compound 72, 1-(4-(benzyloxy)phenethyl)-3-(adamantylethyl)urea] | 89
O=C(NCCc1ccc(OCc2ccccc2)cc1)NCC12CC3CC(CC(C3)C1)C2 [Compound 73, 1-(4-(benzyloxy)phenethyl)-3-(adamantylmethyl)urea] | 97

Same assay, conditions: inhibitor conc. 500 nM

Compound | % Inh [%]
O=C(Nc1cccc(OCCCN2CCOCC2)c1)c1ccc(C(F)(F)F)cc1 [Compound 36, N-[3-(3-Morpholin-4-yl-propoxy)-phenyl]-4-trifluoromethyl-benzamide] | 79
O=C(Nc1cccc(OCCCN2CCOCC2)c1)Nc1ccc2c(c1)OCO2 [Compound 8, 1-Benzo[1,3]dioxol-5-yl-3-[3-(3-morpholin-4-yl-propoxy)-phenyl]-urea] | 91
S=C(Nc1cccc(OCCCN2CCOCC2)c1)NC12CC3CC(CC(C3)C1)C2 [Compound 61] | 96
O=C(CC12CC3CC(CC(C3)C1)C2)NC1CCC(OCCCN2CCOCC2)CC1 (stereo not shown) [Compound 50, 2-Adamantan-1-yl-N-[4-(3-morpholin-4-yl-propoxy)-cyclohexyl]-acetamide] | 85
O=C(Cc1ccc(C(F)(F)F)cc1)Nc1cccc(OCCCN2CCOCC2)c1 [Compound 24, N-[3-(3-Morpholin-4-yl-propoxy)-phenyl]-2-(4-trifluoromethyl-phenyl)-acetamide] | 88
O=C(Nc1cccc(OCCCN2CCOCC2)c1)Nc1ccc(F)cc1F [Compound 5, 1-(2,4-Difluoro-phenyl)-3-[3-(3-morpholin-4-yl-propoxy)-phenyl]-urea] | 78
O=C(Nc1ccc(F)cc1)Nc1ccc(F)c(OCCCN2CCOCC2)c1 [Compound 31, 1-[4-Fluoro-3-(3-morpholin-4-yl-propoxy)-phenyl]-3-(4-fluoro-phenyl)-urea] | 78
O=C(Nc1ccccc1)Nc1cccc(OCCCN2CCOCC2)c1 [Compound 1, 1-[3-(3-Morpholin-4-yl-propoxy)-phenyl]-3-phenyl-urea] | 62
O=C(Nc1ccccc1)Nc1ccc(F)c(OCCCN2CCOCC2)c1 [Compound 29, 1-[4-Fluoro-3-(3-morpholin-4-yl-propoxy)-phenyl]-3-phenyl-urea] | 73
O=C(Cc1ccc(Cl)cc1)Nc1cccc(OCCCN2CCOCC2)c1 [Compound 22, 2-(4-Chloro-phenyl)-N-[3-(3-morpholin-4-yl-propoxy)-phenyl]-acetamide] | 73
O=C(Nc1ccccc1)Nc1ccc(OCCCN2CCOCC2)cc1 [Compound 14, 1-[4-(3-Morpholin-4-yl-propoxy)-phenyl]-3-phenyl-urea] | 90

Same assay, conditions: inhibitor conc. 2000 nM

Compound | % Inh [%]
O=C(Nc1cccc(Oc2cccc(C(=O)O)c2)c1)NC12CC3CC(CC(C3)C1)C2 [Compound 70, 3-(3-(3-(adamantyl)ureido)phenoxy)benzoicacid] | 95
O=C(Nc1ccc(OC(F)(F)F)cc1)N[C@H]1CC[C@H](Oc2ccc(C(=O)O)cc2)CC1 [Compound 74, 4-((1r,4r)-4-(3-(4-(trifluoromethoxy)phenyl)ureido)cyclohexyloxy)benzoic acid] | 100
O=C(Nc1ccc(C(F)(F)F)cc1)N[C@H]1CC[C@H](Oc2ccc(C(=O)O)cc2)CC1 [Compound 75] | 95

Same assay, conditions: inhibitor conc. 5000 nM

Compound | % Inh [%]
O=C(Nc1cccc(OCCCN2CCOCC2)c1)C12CC3CC(CC(C3)C1)C2 [Compound 55, Adamantane-1-carboxylicacid [3-(3-morpholin-4-yl-propoxy)-phenyl]-amide] | 90
O=C(Cc1ccc(OC(F)(F)F)cc1)Nc1ccc(OCCCN2CCOCC2)cc1 [Compound 35, N-[4-(3-Morpholin-4-yl-propoxy)-phenyl]-2-(4-trifluoromethoxy-phenyl)-acetamide] | 93
O=C(Cc1ccc2c(c1)OCO2)Nc1cccc(OCCCN2CCOCC2)c1 [Compound 12, 2-Benzo[1,3]dioxol-5-yl-N-[3-(3-morpholin-4-yl-propoxy)-phenyl]-acetamide] | 87
CC(C)(C)NC(=O)Nc1cccc(OCCCN2CCOCC2)c1 [Compound 42, 1-tert-Butyl-3-[3-(3-morpholin-4-yl-propoxy)-phenyl]-urea] | 79
O=C(Cc1ccccc1)Nc1ccc(OCCCN2CCOCC2)cc1 [Compound 25, N-[4-(3-Morpholin-4-yl-propoxy)-phenyl]-2-phenyl-acetamide] | 80
O=C(Cc1ccc(F)cc1)Nc1cccc(OCCCN2CCOCC2)c1 [Compound 11, 2-(4-Fluoro-phenyl)-N-[3-(3-morpholin-4-yl-propoxy)-phenyl]-acetamide] | 85
O=C(Nc1cccc(OCCCN2CCOCC2)c1)C1CCCCC1 [Compound 56, Cyclohexanecarboxylicacid [3-(3-morpholin-4-yl-propoxy)-phenyl]-amide] | 94
CC(C)(C)CC(=O)Nc1cccc(OCCCN2CCOCC2)c1 [Compound 44, 3,3-Dimethyl-N-[3-(3-morpholin-4-yl-propoxy)-phenyl]-butyramide] | 70
O=C(Nc1cccc(OCCCN2CCOCC2)c1)Nc1c(F)c(F)c(F)c(F)c1F [Compound 7, 1-[3-(3-Morpholin-4-yl-propoxy)-phenyl]-3-pentafluorophenyl-urea] | 87
O=C(Cc1ccc(F)c(F)c1)Nc1cccc(OCCCN2CCOCC2)c1 [Compound 19, 2-(3,4-Difluoro-phenyl)-N-[3-(3-morpholin-4-yl-propoxy)-phenyl]-acetamide] | 92
CN(C)c1cccc(NC(=O)Nc2cccc(OCCCN3CCOCC3)c2)c1 [Compound 17, 1-(3-Dimethylamino-phenyl)-3-[3-(3-morpholin-4-yl-propoxy)-phenyl]-urea] | 95

Same assay, conditions: inhibitor conc. 50000 nM

Compound | % Inh [%]
O=C(Nc1cccc(OCCCN2CCOCC2)c1)Nc1c(Cl)cccc1Cl [Compound 3, 1-(2,6-Dichloro-phenyl)-3-[3-(3-morpholin-4-yl-propoxy)-phenyl]-urea] | 90
O=C(Cc1cccnc1)Nc1cccc(OCCCN2CCOCC2)c1 [Compound 13, N-[3-(3-Morpholin-4-yl-propoxy)-phenyl]-2-pyridin-3-yl-acetamide] | 75
O=C(Nc1cccnc1)Nc1cccc(OCCCN2CCOCC2)c1 [Compound 16, 1-[3-(3-Morpholin-4-yl-propoxy)-phenyl]-3-pyridin-3-yl-urea] | 95
